Among the test systems are COLO 205 colon; PC-3 prostate; SF-268 CNS; OVCAR-5 ovarian; SNB-19 CNS; MDA-MB-435; OVCAR-4 ovarian; HCT-15 colon; K-562 leukemia; SK-OV-3 ovarian.
Common to all, as to experiment: growth of human tumour cells (NCI), 48 h

From PubChem BioAssay (NCI) come the findings set out here.

The structures appear in SMILES notation. Where “and” joins values, the source holds several entries; their conditions need not be identical. Equal entries are not always repeated.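 Protocol summary: plate cells (96-well), add compound at 5 concentrations, incubate 48 h, interpolate endpoints linearly. GI50 = concentration required for 50% inhibition of growth. TGI: concentration producing complete growth inhibition.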 Some results are limits rather than exact numbers.

For the compound `CNC(=O)c1ccccc1Nc1nc(Nc2ccc3c(c2OC)CCC[C@H](N2CCN(CCO)CC2)C3)ncc1Cl`, the GI50 in the assay on COLO 205 colon is 0.335 µM and 0.295 µM; in the assay with PC-3 prostate, 3.01 µM and 2.06 µM; in the assay with SF-268 CNS, 3.23 µM and 3.22 µM; in the assay on OVCAR-5 ovarian, 0.656 µM and 0.732 µM; with SNB-19 CNS, 2.85 µM and 6.49 µM; in the assay on MDA-MB-435, 1.33 µM and 0.901 µM. The GI50 in the assay with OVCAR-4 ovarian was 1.72 µM and 3.45 µM; in the assay on HCT-15 colon, 0.589 µM and 0.552 µM; in the assay on K-562 leukemia, 2.25 µM and 2.51 µM; with SK-OV-3 ovarian, 2.98 µM and 2.47 µM. The TGI is 2.2 µM and 1.6 µM with COLO 205 colon; 15.5 µM and > 10 µM in the assay with PC-3 prostate; 16.5 µM and > 10 µM in the assay on SF-268 CNS; 15.5 µM and > 10 µM in the assay on OVCAR-5 ovarian; 14.6 µM and > 10 µM in the assay with SNB-19 CNS; 6.92 µM and > 10 µM in the assay with MDA-MB-435. Besides, the TGI is 13.4 µM and > 10 µM in the assay on OVCAR-4 ovarian; 6.32 µM and 5.69 µM in the assay with HCT-15 colon; 5.94 µM and 8.55 µM in the assay with K-562 leukemia; 14.4 µM and 9.23 µM with SK-OV-3 ovarian.
`C[N+](C)=c1ccc2nc3c(cc(NCCCNc4cc5oc6cc(=[N+](C)C)ccc-6nc5c5ccccc45)c4ccccc43)oc-2c1`: the GI50 is 1.02 µM in the assay with COLO 205 colon; 1.2 µM in the assay with PC-3 prostate; 2.17 µM with SF-268 CNS; 2.85 µM in the assay with OVCAR-5 ovarian; 3.6 µM with SNB-19 CNS; 1.76 µM in the assay with MDA-MB-435. Also, the GI50 was 0.715 µM in the assay on OVCAR-4 ovarian, 1.9 µM with HCT-15 colon, 1.57 µM in the assay on K-562 leukemia and 18.7 µM in the assay with SK-OV-3 ovarian. Also, the TGI turned out to be 2.45 µM with COLO 205 colon; 5.64 µM in the assay with PC-3 prostate; 9.2 µM in the assay with SF-268 CNS; 10.9 µM with OVCAR-5 ovarian; 19.4 µM in the assay on SNB-19 CNS; 3.29 µM in the assay with MDA-MB-435. In addition, the TGI with OVCAR-4 ovarian was 2.08 µM; with HCT-15 colon it was 6.33 µM; in the assay with K-562 leukemia, more than 25.5 µM; in the assay with SK-OV-3 ovarian it was 42.3 µM.
For `CN(N)c1nc(N)c(C#N)c(C#N)c1C#N`, the TGI in the assay with COLO 205 colon, with PC-3 prostate, in the assay on SF-268 CNS, with OVCAR-5 ovarian, in the assay on SNB-19 CNS and with MDA-MB-435 was more than 10 µM each time. Moreover, the TGI in the assay on OVCAR-4 ovarian, in the assay on HCT-15 colon, in the assay on K-562 leukemia and in the assay with SK-OV-3 ovarian was more than 10 µM throughout.
On to `CC(C)(C)OC(=O)N[C@@H](Cc1ccccc1)C(=O)N(Cc1ccccc1)C1(C(=O)NCc2ccccc2)CCN(Cc2ccccc2)CC1`, for which the GI50 with COLO 205 colon was 1.65 µM; with PC-3 prostate, 2.46 µM; in the assay with SF-268 CNS, 4.88 µM; with SNB-19 CNS it was 5.27 µM; with MDA-MB-435, 3.04 µM; in the assay with OVCAR-4 ovarian, 3.23 µM. Also, the GI50 in the assay with HCT-15 colon is 3.16 µM; in the assay on K-562 leukemia, 3.39 µM; with SK-OV-3 ovarian it was 3 µM. Also, the TGI was 3.32 µM with COLO 205 colon; more than 100 µM with PC-3 prostate; more than 100 µM in the assay on SF-268 CNS; more than 100 µM in the assay with SNB-19 CNS; more than 100 µM in the assay on MDA-MB-435; more than 100 µM in the assay with OVCAR-4 ovarian. Also, the TGI with HCT-15 colon, in the assay with K-562 leukemia and with SK-OV-3 ovarian was more than 100 µM throughout.
As to `C=C1C(=O)O[C@H]2C[C@@H]1C(=O)CC(C)CCCC(C)=CCC[C@@]2(C)O` (stereo partly specified), the TGI in the assay on COLO 205 colon, with PC-3 prostate, with SF-268 CNS, in the assay with OVCAR-5 ovarian, with SNB-19 CNS and in the assay on MDA-MB-435 was more than 25 µM throughout. Further, the TGI in the assay on OVCAR-4 ovarian, with HCT-15 colon and in the assay with SK-OV-3 ovarian was more than 25 µM each time.
With `COc1cc2c3c(n(CCCNCCCN)c(=O)c2cc1OC)-c1cc2c(cc1C3=O)OCO2`, the GI50 in the assay with PC-3 prostate was 3.53 µM; with SF-268 CNS it was 1.98 µM; with OVCAR-5 ovarian, 2.94 µM; in the assay on SNB-19 CNS, 1.52 µM; in the assay with MDA-MB-435 it was 2.53 µM; with OVCAR-4 ovarian, 2.83 µM. Further, the GI50 in the assay on HCT-15 colon was 25 µM; with K-562 leukemia, 3.4 µM; in the assay on SK-OV-3 ovarian, 11.2 µM. Moreover, the TGI in the assay on PC-3 prostate is 14.6 µM; with SF-268 CNS, 10.5 µM; with OVCAR-5 ovarian, 12.6 µM; in the assay on SNB-19 CNS, 11.6 µM; in the assay on MDA-MB-435 it was 13.5 µM; in the assay on OVCAR-4 ovarian it was 16.7 µM. The results for the TGI in the assay on HCT-15 colon, in the assay on K-562 leukemia and with SK-OV-3 ovarian were more than 100 µM, 10.4 µM and 92.9 µM, respectively.
For `CCCCn1c(=O)c(/C=C/C(=O)/C=C/c2cc3ccccc3n(CCCC)c2=O)cc2ccccc21`, the GI50 with COLO 205 colon was 1.41 µM; in the assay on PC-3 prostate, 1.79 µM; in the assay on SF-268 CNS it was 1.98 µM; with OVCAR-5 ovarian, 1.96 µM; in the assay on SNB-19 CNS it was 1.63 µM; with MDA-MB-435 it was 0.206 µM. Besides, the GI50 is 2.78 µM with OVCAR-4 ovarian, 1.29 µM with HCT-15 colon and 3.59 µM in the assay with SK-OV-3 ovarian. Further, the TGI stood at 3.16 µM with COLO 205 colon; 3.86 µM with PC-3 prostate; 5.17 µM with SF-268 CNS; 3.76 µM with OVCAR-5 ovarian; 3.24 µM in the assay with SNB-19 CNS; 0.478 µM with MDA-MB-435. Besides, the TGI in the assay with OVCAR-4 ovarian came to 9.12 µM; in the assay with HCT-15 colon, 2.87 µM; in the assay with SK-OV-3 ovarian it was 9.35 µM.
Regarding `COc1ccc2nc3cc(Cl)ccc3c(Nc3cc(CN4CCCC4)c(O)c(CN4CCCC4)c3)c2n1`, the GI50 was 1.18 µM in the assay with COLO 205 colon; 1.53 µM with PC-3 prostate; 1.28 µM in the assay with SF-268 CNS; 2.66 µM in the assay with OVCAR-5 ovarian; 1.84 µM in the assay with SNB-19 CNS; 1.6 µM with MDA-MB-435. In addition, the figures for the GI50 with OVCAR-4 ovarian, in the assay with HCT-15 colon and in the assay with SK-OV-3 ovarian were 1.12 µM, 1.18 µM and 2.92 µM, respectively. In addition, the TGI turned out to be 2.48 µM in the assay on COLO 205 colon; 6.52 µM with PC-3 prostate; 3.55 µM in the assay with SF-268 CNS; 11.9 µM in the assay on OVCAR-5 ovarian; 10.7 µM with SNB-19 CNS; 3.07 µM in the assay with MDA-MB-435. Moreover, the results for the TGI in the assay with OVCAR-4 ovarian, with HCT-15 colon and with SK-OV-3 ovarian were 4.72 µM, 10.6 µM and 15.5 µM, respectively.
